Patent publication US10259815B2, “Gabaergic ligands and their uses” (UWM Research Foundation, Inc., priority 2015, dated 2019)
Entries after “also recorded” stand apart in the source; their conditions may differ.

What was measured:
[1] = tested on: Male Sprague-Dawley rats; assay: PTZ-induced seizure threshold; type: in vivo
Method: (§1) Results were analyzed using ANOVA (Dunnett's test: *P<0.05).
After a pretreatment of test compound, MET was intravenously administered to a test subject until a convulsions were observed.
Each animal was used only once and was euthanized post testing. Results were analyzed using ANOVA (Dunnett's test: *P<0.05).

[2] = Pharmacokinetics and brain concentration after 10 mg/kg P.O. dose, rats; type: in vivo
Method: In a 10 mg/kg oral dose in rats, a concentration of 644 ng/g of KRM-II-81 was found unbound in the brain, indicating a great pharmacokinetic-profile.
Although these are different species, the numbers can still be compared.

[3] = molecular target: CYP2C9 (Homo sapiens, UniProt P11712); assay: CYP substrate assessment, CYP2C9
[4] = tested on: Male NIH Swiss mice; assay: Forced swim test; type: in vivo; details: 10 and 30 mg/kg i.p.
Method: FIG. 16 is a graph of immobility illustrating the antidepressant effects of KRM-II-81 assessed in the forced swim test. Male NIH Swiss mice (n=7-8) were dosed i.p. with vehicle (1% HEC, 0.25% Tween 80, 0.05% antifoam), KRM-II-81 (3, 10, or 30 mg/kg), or imipramine (15 mg/kg) and assessed in the forced swim test. Results were analyzed using ANOVA (Dunnett's test *P<0.05).
The forced swim test is used as a primary screen for the antidepressant nature of a test compound. Mice are placed in a cylinder filled with a small amount of water. Mice that are more mobile after a dosing of a compound are determined to be less depressed.
The experiment was carried out as described by Porsolt et al. (Arch. Int. Pharmacodyn. Ther. 1977, 229, 327-366). Male NIH Swiss mice (n=7-8) were dosed i.p. with vehicle (1% HEC, 0.25% Tween 80, 0.05% antifoam), KRM-II-81 (3, 10, or 30 mg/kg), or imipramine (15 mg/kg) and assessed in the forced swim test. Mice were placed individually in clear plastic cylinders (10 cm in diameter×25 cm in height) filled to 6 cm with 22-25° C. water for 6 minutes. The duration of immobility was recorded during the last 4 minutes of a 6-minute trial. A mouse was regarded as immobile when floating motionless or making only those movements necessary to keep its head above the water.

[5] = tested on: Male CD-1 mice; assay: Maximal electroshock (MES)-induced convulsion protection; type: in vivo; details: i.p. 30 minutes prior to test
Method: Male CD-1 mice (n=10) were dosed i.p. 30 minutes prior to being tested. Results were analyzed using ANOVA (Dunnett's test versus vehicle: *P<0.05).
The maximal electroshock (MES) assay is designed to determine how well a test compound can prevent seizures induced by applying a voltage stimuli to a mouse.
Mice were subjected to electrical induced tonic seizures and examined for anticonvulsant effects 30 minutes after treatment. Mice were then given a 7 mA electroshock using a Wahlquist Model H for 0.2 seconds and observed for the presence or absence of seizure activity. Each mouse is tested only once and euthanized immediately following the test.

[6] = tested on: Male Sprague-Dawley rats; assay: von Frey filament test in spinal nerve ligated (SNL) rats; type: in vivo
Method: FIG. 11 is a graph of time versus withdrawal threshold for KRM-II-81, Gabapentin, and vehicle, showing the effect of KRM-II-81 on antihyperalgesia in the von Frey filament assay. Male Sprague-Dawley rats (n=5) were dosed i.p. either vehicle, KRM-II-81 (30 mg/kg), or gabapentin (50 mg/kg) and tested in the von Frey filament assay after undergoing SNL 90 days prior. Results were analyzed using ANOVA (Dunnett's test: *P<0.05).
The von Frey filament test is used to test for antihyperalgesia, or an increased sensitivity to pain. […] The von Frey filaments are used to apply pressure to the forelimbs of test subjects at set amounts. When pressure becomes too great, the forelimb is withdrawn and the amount of force applied recorded. The spinal nerve ligation induced hyperalgesia, reducing the amount of force a limb can take before being withdrawn.
Test compounds were given to test the effectiveness of combating the hyperalgesic effect of SNL. Male Sprague-Dawley rats went through SNL at least 90 days prior to the von Frey testing. Rats were first tested without given an injection to determine a baseline. Following baseline establishment, rats (n=5 for all groups) were dosed i.p. with vehicle (1% carboxymethyl cellulose), KRM-II-81 (30 mg/kg), or gabapentin (50 mg/kg). Subjects were then tested every hour for four hours to determine the antihyperalgesic effect of the test compounds. For testing, pressure using von Frey filaments was applied to the forelimb of the rat. Pressure was increased until the limb was withdrawn, and the amount of pressure was recorded.

[7] = tested on: Male Sprague-Dawley rats; assay: Inverted screen test (muscle relaxation); type: in vivo
Method: as §1
The inverted screen test is used to measure whether or not a test compound induces muscle relaxation. When a test subject is placed on a wire screen which is then inverted, the reaction is to climb to the opposite side so they are no longer hanging upside down. If a compound promotes muscle relaxation, the test subjects will either fall off, or hang onto the screen without being able to climb to the opposite side.
Rats were placed onto the top of a wire screen, which was then inverted so that the rats were hanging upside down. […] Results were analyzed using ANOVA (Dunnett's test: *P<0.05).

CYP2C9, sequence (P11712 whole entry): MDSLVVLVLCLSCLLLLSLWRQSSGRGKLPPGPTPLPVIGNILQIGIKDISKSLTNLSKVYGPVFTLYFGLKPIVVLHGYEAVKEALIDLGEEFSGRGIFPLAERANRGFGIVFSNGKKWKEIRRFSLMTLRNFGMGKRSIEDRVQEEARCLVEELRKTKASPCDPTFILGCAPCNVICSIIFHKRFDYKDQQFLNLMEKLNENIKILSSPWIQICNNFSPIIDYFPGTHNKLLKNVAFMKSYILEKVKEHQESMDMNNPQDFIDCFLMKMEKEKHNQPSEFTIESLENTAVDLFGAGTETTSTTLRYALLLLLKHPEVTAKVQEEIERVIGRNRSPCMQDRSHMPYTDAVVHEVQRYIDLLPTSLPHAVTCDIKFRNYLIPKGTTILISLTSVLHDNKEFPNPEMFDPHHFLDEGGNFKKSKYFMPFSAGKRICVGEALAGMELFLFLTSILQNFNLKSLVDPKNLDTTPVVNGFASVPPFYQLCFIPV

C#Cc1ccc2c(c1)C(c1ccccn1)=NCc1c(-c3cnco3)ncn1-2 [KRM-II-81, 5-(8-Ethynyl-6-(pyridin-2-yl)-4H-benzo[f]imidazo[1,5-a][1,4]diazepin-3-yl)oxazole]
dose of MET required for convulsion ([1]; pretreated with 10 mg/kg i.p., PTZ infused i.v.): 71 mg/kg
effect on seizure threshold to PTZ ([1]; test compound 3 to 60 mg/kg, diazepam 0.1 to 1 mg/kg i.p.): significantly increased the seizure threshold to PTZ; also recorded: larger maximal effect
concentration in the blood relative to HZ-166 ([2]; Cmax, 10 mg/kg P.O., KRM-II-81 in rats vs HZ-166 in mice): ~500 times
Tmax ([2]; rat, blood, po, 10 mg/kg P.O., rats): 1.3 h
Cmax ([2]; rat, blood, po, 10 mg/kg P.O., rats, read-out: Cmax (highest concentration found in blood)): 1750 ng/mL
concentration at 1 h ([2]; rat, brain (unbound), 10 mg/kg oral dose, one hour after dose, rats stated for KRM-II-81, read-out: brain unbound concentration ([brain]u)): 644 ng/g
fraction unbound ([2]; rat, 10 mg/kg oral dose, brain, read-out: free fraction): 0.18
substrate of CYP2C9 [3]: not found to be a substrate
antidepressant effects (immobility) [4]: demonstrated antidepressant effects
protection against MES-induced seizures [5]: greater effectiveness than HZ-166; also recorded: fully protected against seizure induction
statistical significance of antihyperalgesic effect ([6]; KRM-II-81 30 mg/kg at one hour, gabapentin 50 mg/kg): able to reach significance
antihyperalgesic activity, von Frey after SNL ([6]; KRM-II-81 30 mg/kg, gabapentin 50 mg/kg i.p.): active as antihyperalgesics
pain threshold (force before removing paw) ([6]; from 1-2 hours, vehicle ˜5 g): ~12 g
muscle relaxation / motor impairment in inverted screen ([7]; i.p. 30 minutes prior, diazepam 3, 10, 30 mg/kg, KRM-II-81 10, 30, 60 mg/kg, HZ-166 30 mg/kg): Neither HZ-166 nor KRM-II-81 induced significant muscle relaxation
dose at which signs of muscle relaxation began to appear ([7]; i.p., inverted screen): 60 mg/kg
